Test results: US6919470B2, “Aryl and heteroaryl sulfonates” (priority 2000, dated 2005)

Assays:
[1] = Microsomal stability investigation (rat liver microsomes); type: in vitro ADME; conditions: predicted from microsomal data
Description: The metabolic stability of the compounds according to the invention can be found in the following in vitro assay: 4. Microsomal Stability Investigation The metabolic stability of the compounds according to the invention can be measured in rat liver microsomes (in analogy to J. Pharmacol. Exp. Ther. 1997, 283. 46-58). To determine the microsomal stability and extrapolate to the maximum possible bioavailability (Fmax) owing to the first-past effect in the liver (phase 1 reactions), the substance is incubated in low concentration with microsomal protein, with addition of cofactors, at 37° C. for 15 minutes. The incubation and the sampling take place on a modified automatic pipettor from Canberra Packard. Microsomal data (rat liver microsomes) predict a maximum possible availability of up to 100%.

rat [2] = assay: Axotomy of sciatic branches in the rat (chronic pain model); type: in vivo; conditions: orally, acute administration, 60 minutes before the test
Procedure: 7. Axotomy of Sciatic Branches in the Rat (Chronic Pain Model)
Under pentobarbital anesthesia, the trifurcation of a sciatic nerve is exposed, and the peroneal and tibial branches are axotomized after the nerves have been ligated proximal of the axotomy site. Control animals undergo a sham operation. After the operation, the axotomized animals develop chronic mechanical allodynia and thermal hyperalgesia.
The mechanical allodynia is tested, comparing with sham-operated animals, with the aid of a pressure transducer (electronic von Frey anesthesiometer, IITC Inc.-Life Science Instruments, Woodland Hills, Calif., USA).
The thermal hyperalgesia can be determined by measuring the latency time within which a rat removes a paw from the area of a radiant heat source (plantar test, Ugo Basile (Milan)).
The substance was administered by various administration routes (i.v., i.p., orally, i.t., i.c.v., transdermally) at various times before the pain testing.
Example 2 reduces the hyperalgesia in the model at a minimally effective dose of 1 mg/kg orally (acute administration, 60 minutes before the test).

CB1 receptor = target: T1, CB1 receptor (Rattus norvegicus, UniProt P20272); assay: Rat hypothermia agonism test; type: in vivo; conditions: oral administration
T1 construct: from tissue; host or cells: whole animal (rat), oral dosing
T1 sequence (P20272 whole entry): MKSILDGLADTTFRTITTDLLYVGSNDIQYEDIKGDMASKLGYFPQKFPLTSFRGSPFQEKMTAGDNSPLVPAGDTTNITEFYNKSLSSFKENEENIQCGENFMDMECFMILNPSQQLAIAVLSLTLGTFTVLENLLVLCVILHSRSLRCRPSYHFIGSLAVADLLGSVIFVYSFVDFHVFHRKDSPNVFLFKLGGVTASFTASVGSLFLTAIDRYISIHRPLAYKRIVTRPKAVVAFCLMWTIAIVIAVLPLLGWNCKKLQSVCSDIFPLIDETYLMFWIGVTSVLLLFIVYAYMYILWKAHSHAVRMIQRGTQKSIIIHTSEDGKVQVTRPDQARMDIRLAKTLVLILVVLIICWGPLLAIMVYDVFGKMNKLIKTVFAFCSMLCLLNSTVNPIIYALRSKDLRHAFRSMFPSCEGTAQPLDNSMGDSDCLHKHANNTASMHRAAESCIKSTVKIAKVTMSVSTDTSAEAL
Procedure: The in vivo agonistic effect on the CB1 receptor was examined in the rat hypothermia assay.
Five minutes after determining the basal body temperature via an esophageal temperature probe, the test substance is administered (orally). A control group receives, likewise orally, only the solvent for the test substances (Cremophors EL 1-10%+distilled water). The body temperature is measured 120 and 240 minutes after oral administration. The size of the group for each dose is 5-7 animals (rats).
Rat Hypothermia Agonism Test

rat [3] = assay: 6-Hydroxydopamine (6-OH-DA) lesion in the rat, staircase test; type: in vivo; conditions: oral dose of 1.0 mg/kg bid
Procedure: 8.6-Hydroxydopamine (6-OH-DA) Lesion in the Rat
Degeneration of dopaminergic nigrostriatal and striatopallidal neurotransmission is the main characteristic of Parkinson's disease. The clinical picture of Parkinson's disease can be simulated to a large extent in an animal model in which the neurotoxin 6-OH-DA is injected intracerebrally in rats.
Male rats (Harlan Winkelmann, Germany; weight at start of test: 200-250 g) were used for the experiments described. The experimental animals were housed under controlled conditions (humidity, temperature) with a 12-hour light/dark cycle. Those animals not involved in an experiment had free access to water and feed.
On the day of the operation, 30 minutes before the lesion, pargyline (Sigma, St. Louis, Mo., USA; 50 mg/kg i.p.) and desmethylimipramine HCl (Sigma; 25 mg/kg i.p.) were administered to the animals in order respectively to suppress 6-hydroxydopamine metabolism and prevent uptake of 6-hydroxydopamine in noradrenergic structures. […]
After the operation, the animals were placed on a warm plate and, after regaining consciousness while being monitored, returned to their cage and received feed and water ad libitum. […]
The motor deficits after the lesion were quantified using the following test as described in the respective literature: […]

[4] = Pharmacokinetics in the rat; type: in vivo
Procedure: The bioavailability of the compounds according to the invention, and other pharmacokinetic parameters, can be determined in vivo in the following way:
5. Pharmacokinetics in the Rat
The substance is infused through a Braunüle in a lateral tail vein directly into the blood stream over 15 minutes. A calibrated 20 ml syringe is used for accurate administration of the chosen dose and volume. A Braun Melsungen No. 152440/1 pump is used for the infusion.
The substance is administered as bolus by gavage.
Blood samples are collected from catheterized animals jugular vein) in heparinized tubes. The blood is centrifuged and the plasma is prepared in a suitable manner for analysis (LC-MS-MS). The plasma is stored at <−15° C. until analyzed.
d) Pharmacokinetic Results of Example 2

rat CB1 receptor = target: T2, rat CB1 receptor (Rattus norvegicus, UniProt P20272); assay: Rat CB1 luciferase reporter gene test; type: cell-based; conditions: rat CHOCB1 reporter cell line, forskolin-stimulated luciferase activity
T2 construct: expressed in transfected cells; host or cells: CHO (CHOluc9) luciferase reporter cells
T2 sequence (P20272 whole entry): as above
Procedure: 1. Rats CB1 Luciferase Reporter Gene Test
Stock cultures of a rat CHOCB1 reporter cell line were prepared by the method described in WO-A-98/37061, page 55 et seq.
The following test protocol was used for the substance screening: the stock cultures were cultivated in 50% of Dulbecco's modified Eagle medium/50% F-12 (DMEM/F12) with 10% FCS at 37° C. under 10% CO2 and split 1:10 after 2 to 3 days in each case. Test cultures were seeded at 5000cells […] in 96-well plates and cultured at 37° C. for 70 hours. The cultures were then cautiously washed with phosphate-buffered saline and reconstituted with serum-free Ultra-CHO medium (Bio-Whittaker). The substances dissolved in DMSO were diluted 1× in medium and pipetted into the test cultures (maximum DMSO final concentration in test mixture: 0.5%). 20 minutes later, forskolin was added and the cultures were then incubated in an incubator at 37° C. for 3 hours. […] Immediately thereafter luciferase substrate solution (2.5 mM ATP, 0.5 mM luciferin, 0.1 mM coenzyme A, 10 mM tricine, 1.35 mM MgSO4, 15 mM DTT, pH 7.8) and briefly shaken, and the luciferase activity was measured using a Hamamatsu camera system. […]
The IC50 values were calculated using the GraphPadPrism program (Hill equation, specifically: one-site competition).

Structure (SMILES) | maximum possible availability (Fmax) [1] | minimally effective dose reducing the hyperalgesia (rat [2]) [mg/kg] | ED−1° C. (effective dose for reducing the body temperature by 1° C.) (CB1 receptor) [mg/kg] | fine coordination of the forepaws in the staircase test (rat [3]) | AUCnorm ([4]; oral, dose 3 mg/kg) [kg·h/L] | Cmax,norm ([4]; oral, dose 3 mg/kg) [kg/L] | F ([4]; oral, dose 3 mg/kg) [%] | clearance ([4]; plasma, iv, dose 0.3 mg/kg) [mL/min/kg] | half-life ([4]; plasma, iv, dose 0.3 mg/kg) [h] | Vd ([4]; plasma, iv, dose 0.3 mg/kg, read-out: Vss) [L/kg] | Tmax ([4]; plasma, oral, dose 3 mg/kg) [h] | half-life ([4]; plasma, oral, dose 3 mg/kg) [h] | IC50 (rat CB1 receptor) [nM]
O=S(=O)(CCCC(F)(F)F)Oc1cccc(-c2cccc(C(F)(F)F)c2)c1 [Example 2] | up to 100% | 1 | 5 | improvement in the fine coordination of the forepaws | 0.322 | 0.0674 | 100 | 51.7 | 2.2 | 5.8 | 3 | 1.7 | –
CCCCCS(=O)(=O)Oc1cccc(-c2cccc(C(F)(F)F)c2)c1 [Example 3] | – | – | – | – | – | – | – | – | – | – | – | – | 2.4
Cc1ccnc(-c2cccc(OS(=O)(=O)CCCC(F)(F)F)c2)c1 [Example 17] | – | – | – | – | – | – | – | – | – | – | – | – | 16
